According to patent US11680050B2, “Crystalline forms of ozanimod and ozanimod hydrochloride, and processes for preparation thereof” (RECEPTOS LLC, priority 2016, dated 2023):
In brackets after ≈: the same amount, converted by molar mass. Counter-ions that a name gives are not always drawn.

What was measured:
Type in all cases: physicochemical
[1] = Hygroscopicity assessment by dynamic vapor sorption (DVS); details: for Hygroscopicity class according to the definition of hygroscopicity: Chinese Pharmacopoeia 2015, 25° C., 80% RH; for Weight gain under 80% RH: DVS, 25° C.
Procedure: Dynamic Vapor Sorption (DVS) is measured via an SMS (Surface Measurement Systems Ltd.) intrinsic DVS. Typical Parameters for DVS test are as follows:
Gas and flow rate: N2, 200 mL/min
RH range: 0% RH to 95% RH […]
Dynamic vapor sorption (DVS) was applied to test hygroscopicity of Form CS1 of ozanimod hydrochloride with about 10 mg of samples.
Description and definition of hygroscopicity (Chinese Pharmacopoeia 2015 edition appendix Drug hygroscopic test guidelines, test at 25° C.+/−1° C., 80% RH). • deliquescent: Sufficient water is absorbed to form a liquid; • very hygroscopic: Increase in mass is equal to or greater than 15 percent; • hygroscopic: Increase in mass is less than 15 percent and equal to or greater than 2 percent; • slightly hygroscopic: Increase in mass is less than 2 percent and equal to or greater than 0.2 percent. • non hygroscopic or almost non hygroscopic: Increase in mass is less than 0.2 percent.

[2] = Particle size distribution test (laser particle size analyzer, wet process); details: for MV, average particle size calculated by volume: dispersion medium Isopar G; for D10 / D50 (median diameter) / D90: volume distribution, Isopar G
Procedure: The particle size distribution test in the present disclosure is acquired by the S3500 laser particle size analyzer of Microtrac. Microtrac S3500 is equipped with the SDC (Sample Delivery Controller). The test is carried out by wet process, and the dispersion medium is Isopar G The parameters are as follow:
Certain amount of samples of Form CS1, Form CS2, Form CS3, Form CS5, Form CS6 of ozanimod and Form CS1 of ozanimod hydrochloride were taken for particle size distribution test.

[3] = Stability assessment in constant temperature and humidity chambers (HPLC purity, XRPD crystalline form); details: for 1 week purity % / 2 week purity % / 4 week purity %: HPLC; for Change of the crystalline form: XRPD; for Stability, overall conclusion of the storage test: after storage under all conditions tested for the form
Procedure: Three solid samples of Form CS1 were placed in constant temperature and humidity chambers at 25° C./60% RH, 40° C./75% RH and 60° C./75% RH for 4 weeks. XRPD was used to test the crystalline form at the end of week 4. HPLC was used to measure the chemical purity at the end of week 1, 2, and 4. The XRPD comparison result is shown in FIG. 31 (from top to bottom: XRPD pattern of Form CS1 before and after being stored under 25° C./60% RH, 40° C./75% RH and 60° C./75% RH for 4 weeks), and the results are shown in Table 20.
Four solid samples of Form CS2 were placed in constant temperature and humidity chambers at 25° C./60% RH, 40° C./75% RH and 60° C./75% RH for 4 weeks and 80° C. for 1 week. XRPD was used to test the crystalline form at the end of week 4. HPLC was used to measure the chemical purity at the end of week 1, 2, and 4. The XRPD comparison result is shown in FIG. 32 (from top to bottom: XRPD pattern of Form CS2 before and after being stored under 25° C./60% RH, 40° C./75% RH and 60° C./75% RH for 4 weeks and 80° C. for 1 week), and the results are shown in Table 21.
Three solid samples of Form CS3 were placed in constant temperature and humidity chambers at 25° C./60% RH, 40° C./75% RH and 60° C./75% RH for 4 weeks. XRPD was used to test the crystalline form at the end of week 4. HPLC was used to measure the chemical purity at the end of week 1, 2, and 4. The XRPD comparison pattern is shown in FIG. 33 (from top to bottom: XRPD pattern of Form CS3 before and after being stored under 25° C./60% RH, 40° C./75% RH and 60° C./75% RH for 4 weeks), and the results are shown in Table 22.
Three solid samples of Form CS5 were placed in constant temperature and humidity chambers at 25° C./60% RH, 40° C./75% RH and 60° C./75% RH for 2 weeks. XRPD was used to test the crystalline form at the […]. The XRPD comparison pattern is shown in FIG. 34 (from top to bottom: XRPD pattern of Form CS5 before and after being stored under 25° C./60% RH, 40° C./75% RH and 60° C./75% RH for 2 weeks), and the results are shown in Table 23.
Two samples of Form CS6 were placed in constant temperature and humidity chambers at 25° C./60% RH and 40° C./75% RH for 4 weeks. XRPD was used to test the crystalline form at the end of week 4. HPLC was used to measure the chemical purity at the end of week 1, 2, and 4.The XRPD comparison result is shown in FIG. 35 (from top to bottom: XRPD pattern of Form CS6 before and after being stored under 25° C./60% RH and 40° C./75% RH for 4 weeks), and the results are shown in Table 24.
Four samples of Form CS1 of ozanimod hydrochloride were placed in constant temperature and humidity chambers at 25° C./60% RH, 40° C./75% RH and 60° C./75% RH for 4 weeks and 80° C. for 1 week. XRPD was used to test the crystalline form at the end of week 4. HPLC was used to measure the chemical purity at the end of week 1, 2, and 4. The XRPD comparison pattern is shown in FIG. 36 (from top to bottom: XRPD pattern of ozanimod hydrochloride Form CS1 before and after being stored under 25° C./60% RH, 40° C./75% RH and 60° C./75% RH for 4 weeks and 80° C. for 1 week), and the results are shown in Table 25.

[4] = Mechanical stability, manual grinding for 5 minutes in mortar, XRPD; details: ground manually for 5 minutes, XRPD before and after
Procedure: Solid samples of Form CS3, Form CS5, Form CS6 of ozanimod and Form CS1 of ozanimod hydrochloride were ground manually for 5 minutes in mortar.

[5] = Solubility assessment of saturated solutions in SGF, FeSSIF and water, measured by HPLC
Procedure: Form CS1 and Form CS1 of ozanimod hydrochloride were suspended into SGF (Simulated gastric fluids) and FeSSIF (Fed state simulated intestinal fluids, pH=5.0) to obtain saturated solutions. After being equilibrated for 1 h, 4 h and 24 h, concentrations of the saturated solutions were measured by HPLC.
Form CS3 and Form CS5 were suspended into SGF (Simulated gastric fluids) and water, and Form CS2 was suspended into FeSSIF (Fed state simulated intestinal fluids) to obtain saturated solutions. After being equilibrated for 1 h, 4 h and 24 h, concentrations of the saturated solutions were measured by HPLC.

SMILES: CC(C)Oc1ccc(-c2nc(-c3cccc4c3CC[C@@H]4NCCO)no2)cc1C#N [Form CS1 of ozanimod hydrochloride, ozanimod hydrochloride]
- Hygroscopicity class according to the definition of hygroscopicity [1]: slightly hygroscopic (Increase in mass is less than 2 percent and equal to or greater than 0.2 percent)
- Weight gain under 80% RH ([1]; hydrochloride): 0.55%
- Weight gain under 80% RH ([1]; listed as ozanimod hydrochloride Form CS1, hydrochloride): 0.55%
- MV, average particle size calculated by volume ([2]; hydrochloride): 200.7 μm
- D10 ([2]; hydrochloride): 20.84 μm
- D50 (median diameter) ([2]; hydrochloride): 180.8 μm
- D90 ([2]; hydrochloride): 397.7 μm
- 1 week purity % ([3]; 25° C./60% RH, 1 week, hydrochloride): 99.18%
- 2 week purity % ([3]; 25° C./60% RH, 2 weeks, hydrochloride): 99.13%
- 4 week purity % ([3]; 25° C./60% RH, 4 weeks, hydrochloride): 99.22%
- Change of the crystalline form ([3]; 25° C./60% RH, 4 weeks): No change
- 1 week purity % ([3]; 40° C./75% RH, 1 week, hydrochloride): 99.15%
- 2 week purity % ([3]; 40° C./75% RH, 2 weeks, hydrochloride): 99.12%
- 4 week purity % ([3]; 40° C./75% RH, 4 weeks, hydrochloride): 99.24%
- Change of the crystalline form ([3]; 40° C./75% RH, 4 weeks): No change
- 1 week purity % ([3]; 60° C./75% RH, 1 week, hydrochloride): 99.25%
- 2 week purity % ([3]; 60° C./75% RH, 2 weeks, hydrochloride): 99.25%
- 4 week purity % ([3]; 60° C./75% RH, 4 weeks, hydrochloride): 99.36%
- Change of the crystalline form ([3]; 60° C./75% RH, 4 weeks): No change
- 1 week purity % ([3]; 80° C., 1 week, hydrochloride): 99.34%
- Change of the crystalline form ([3]; 80° C., 1 week): No change
- Stability, overall conclusion of the storage test [3]: good stability
- Form change under mechanical stress [4]: No form change
- Solubility ([5]; FeSSIF (pH=5.0), 4 h, hydrochloride): 1500 µg/mL

SMILES: CC(C)Oc1ccc(-c2nc(-c3cccc4c3CC[C@@H]4NCCO)no2)cc1C#N [Form CS5, ozanimod]
- Hygroscopicity class according to the definition of hygroscopicity [1]: slightly hygroscopic (Increase in mass is less than 2 percent and equal to or greater than 0.2 percent)
- Weight gain under 80% RH [1]: 0.23%
- MV, average particle size calculated by volume [2]: 68.84 μm
- D10 [2]: 6.55 μm
- D50 (median diameter) [2]: 41.10 μm
- D90 [2]: 173.3 μm
- Change of the crystalline form ([3]; 25° C./60% RH, 2 weeks): No change
- Change of the crystalline form ([3]; 40° C./75% RH, 2 weeks): No change
- Change of the crystalline form ([3]; 60° C./75% RH, 2 weeks): No change
- Stability, overall conclusion of the storage test [3]: good stability
- Form change under mechanical stress [4]: No form change
- Solubility ([5]; H2O, 24 h): 270 µg/mL (≈ 668 µM)
- Solubility ([5]; SGF, 4 h): 1000 µg/mL (≈ 2470 µM)
- Solubility ([5]; SGF, 24 h): 770 µg/mL (≈ 1900 µM)
- solubility at 4 h ([5]; water, thermodynamic from solid, H2O, 4 h): 260 µg/mL (≈ 643 µM)

SMILES: CC(C)Oc1ccc(-c2nc(-c3cccc4c3CC[C@@H]4NCCO)no2)cc1C#N [Form CS3, ozanimod]
- Weight gain under 80% RH [1]: 2.25%
- MV, average particle size calculated by volume [2]: 66.62 μm
- D10 [2]: 20.36 μm
- D50 (median diameter) [2]: 51.80 μm
- D90 [2]: 130.8 μm
- 1 week purity % ([3]; 25° C./60% RH, 1 week): 99.53%
- 2 week purity % ([3]; 25° C./60% RH, 2 weeks): 99.30%
- 4 week purity % ([3]; 25° C./60% RH, 4 weeks): 99.31%
- Change of the crystalline form ([3]; 25° C./60% RH, 4 weeks): No change
- 1 week purity % ([3]; 40° C./75% RH, 1 week): 99.52%
- 2 week purity % ([3]; 40° C./75% RH, 2 weeks): 99.28%
- 4 week purity % ([3]; 40° C./75% RH, 4 weeks): 99.17%
- Change of the crystalline form ([3]; 40° C./75% RH, 4 weeks): No change
- 1 week purity % ([3]; 60° C./75% RH, 1 week): 99.36%
- 2 week purity % ([3]; 60° C./75% RH, 2 weeks): 98.84%
- 4 week purity % ([3]; 60° C./75% RH, 4 weeks): 98.54%
- Change of the crystalline form ([3]; 60° C./75% RH, 4 weeks): No change
- Stability, overall conclusion of the storage test [3]: good stability
- Form change under mechanical stress [4]: No form change
- Solubility ([5]; SGF, 1 h): 540 µg/mL (≈ 1340 µM)
- Solubility ([5]; SGF, 4 h): 520 µg/mL (≈ 1290 µM)
- Solubility ([5]; SGF, 24 h): 540 µg/mL (≈ 1340 µM)
- solubility at 1 h ([5]; water, thermodynamic from solid, H2O, 1 h): 170 µg/mL (≈ 420 µM)
- solubility at 24 h ([5]; water, thermodynamic from solid, H2O, 24 h): 350 µg/mL (≈ 865 µM)
